Assay results reported in patent publication US5462868A (priority 1991, dated 1995).
Where two headings read alike, the source gives them in different places.

Assays:
[1] = test system: cocaine esterase; type: biochemical, Pseudomonas maltophilia MB11L; details: for Km: read-out: Apparent Km
Procedure: (§1) The reaction was stopped by the addition of 10 μl of concentrated phosphoric acid and protein pelleted at 13,000 rpm in a minifuge. The amount of benzoic acid produced was determined by HPLC analysis of 50 μl of the supernatant and comparison to standard samples (0-1 mM) treated identically. Standard curves of peak height plotted against benzoic acid concentration were linear over the range 0-1 mM. Controls containing no enzyme solution were run to allow for background hydrolysis. An assay was considered invalid if no cocaine remained at the end of the assay (seen by HPLC). One unit of esterase activity is defined as the amount of enzyme required to produce 1 μmol of benzoic acid in 1 min at 30° C.
Reactions were stopped using concentrated phosphoric acid (10 μl) to precipitate protein, which was removed by centrifugation at 13,000 rpm in a Microfuge. Rates of substrate hydrolysis were calculated from HPLC analyses of the incubations. Non-enzymic rates of hydrolysis were calculated from control samples containing no enzyme, and the enzyme assays corrected accordingly. Standard samples of the relevant free acids were used to calibrate each assay. […] Lineweaver-Burke and Eadie-Hofstee plots were used to obtain these values (see Fersht, 1985, Enzyme Structure and Mechanism, 2nd Edition, Publishers: W. H. Freeman & Co., Oxford for methods).

[2] = test system: cocaine esterase; type: biochemical, Pseudomonas maltophilia MB11L; details: 1 mM inhibitor; for % ACTIVITY RELATIVE TO CONTROL: preincubated 30° C. 10 min, 2 mM cocaine, 0.9 U/ml=100% activity; for inhibition of cocaine esterase activity (in words): 30° C., 10 min
Procedure: as §1
The possible inhibitors tested were phenylmethylsulphonyl fluoride (PMSF), eserine, para-hydroxymercuribenzoate (pHMB), benzoate and ecgonine methyl ester.

[3] = Specific activity of esterases against their usual substrate; type: biochemical; details: usual substrate of each enzyme
Procedure: Control incubations containing no enzyme were performed under each set of conditions to allow accurate assaying of enzyme activity.

[4] = Screen of esterases for activity against cocaine (HPLC); type: biochemical; details: 2 mM cocaine in 50 mM buffer of pH suited for maximum enzyme activity
[5] = purified cocaine esterase, 50 mM bis-tris-propane buffer pH 8.0, 30° C., 10 min, mean values

Molecule: CCOC(=O)c1ccccc1 [Ethyl benzoate]
- Apparent Vmax ([1]; pH 8): 65.0 U/mg
- Km ([1]; pH 8): 1890 µM

Molecule: O=C(O)c1ccccc1 [Benzoate, benzoate]
- % ACTIVITY RELATIVE TO CONTROL [2]: 92%

Molecule: O=S(=O)(F)Cc1ccccc1 [PMSF, phenylmethylsulphonyl fluoride]
- inhibition of cocaine esterase activity (in words) [2]: total inactivation
- % ACTIVITY RELATIVE TO CONTROL [2]: 0%

Molecule: Horse serum butyryl-cholinesterase: commercially available esterase enzyme
- SPECIFIC ACTIVITY (U/mg) AGAINST USUAL SUBSTRATE [3]: 14 U/mg
- SPECIFIC ACTIVITY (U/mg) AGAINST COCAINE [4]: 0.098 U/mg

Molecule: O=C(O)c1cc[c]([Hg][OH])cc1 [pHMB, para-hydroxymercuribenzoate]
- inhibition of cocaine esterase activity (in words) [2]: relatively ineffective
- % ACTIVITY RELATIVE TO CONTROL [2]: 86%

Molecule: Electric eel acetyl-cholinesterase: commercially available esterase enzyme
- SPECIFIC ACTIVITY (U/mg) AGAINST USUAL SUBSTRATE [3]: 320 U/mg
- SPECIFIC ACTIVITY (U/mg) AGAINST COCAINE [4]: 0 U/mg

Molecule: CNC(=O)Oc1ccc2c(c1)[C@]1(C)CCN(C)[C@@H]1N2C [Eserine, eserine]
- inhibition of cocaine esterase activity (in words) [2]: relatively ineffective
- % ACTIVITY RELATIVE TO CONTROL [2]: 95%

Molecule: CCOC(=O)c1cccc(O)c1 [Ethyl 3-hydroxybenzoate]
- Apparent Km [1, 5]: No activity
- Apparent Vmax [1, 5]: No activity

Molecule: CCOC(=O)c1ccccc1O [Ethyl 2-hydroxycenzoate]
- Km [1, 5]: 1750 µM

Molecule: COC(=O)[C@@H]1[C@H]2CC[C@@H](C[C@@H]1O)N2C [Ecgonine methyl ester, ecgonine methyl ester]
- % ACTIVITY RELATIVE TO CONTROL [2]: 82%

Molecule: COC(=O)[C@H]1[C@@H](OC(=O)c2ccccc2)C[C@@H]2CC[C@H]1N2C [Cocaine]
- Apparent Vmax [1, 5]: 29.5 U/mg
- Km [1, 5]: 360 µM

Molecule: CCOC(=O)c1ccc(O)cc1 [Ethyl 4-hydroxybenzoate]
- Apparent Km [1, 5]: No activity
- Apparent Vmax [1, 5]: No activity

B1: Porcine pancreatic lipase: commercially available esterase enzyme (protein, UniProt P00591 1-450, looked up)
Pancreatic triacylglycerol …: SEVCFPRLGCFSDDAPWAGIVQRPLKILPWSPKDVDTRFLLYTNQNQNNYQELVADPSTITNSNFRMDRKTRFIIHGFIDKGEEDWLSNICKNLFKVESVNCICVDWKGGSRTGYTQASQNIRIVGAEVAYFVEVLKSSLGYSPSNVHVIGHSLGSHAAGEAGRRTNGTIERITGLDPAEPCFQGTPELVRLDPSDAKFVDVIHTDAAPIIPNLGFGMSQTVGHLDFFPNGGKQMPGCQKNILSQIVDIDGIWEGTRDFVACNHLRSYKYYADSILNPDGFAGFPCDSYNVFTANKCFPCPSEGCPQMGHYADRFPGKTNGVSQVFYLNTGDASNFARWRYKVSVTLSGKKVTGHILVSLFGNEGNSRQYEIYKGTLQPDNTHSDEFDSDVEVGDLQKVKFIWYNNNVINPTLPRVGASKITVERNDGKVYDFCSQETVREEVLLTLNPC
- SPECIFIC ACTIVITY (U/mg) AGAINST USUAL SUBSTRATE [3]: 50 U/mg
- SPECIFIC ACTIVITY (U/mg) AGAINST COCAINE [4]: 0 U/mg
